US7563805B2, “Tri-, tetra-substituted-3-aminopyrrolidine derivative” (Daiichi Pharmaceutical Co., Ltd., priority 2005, dated 2009)
Values after ≈ are worked out from the molar mass of the structure shown. Where two headings read alike, the source gives them in different places.

How the values were obtained:
E. coli NIHJ = experiment: antibacterial activity (MIC), standard method of Japanese Society of Chemotherapy; conditions: Escherichia coli
hERG K+ channel = hERG K+ channel (Homo sapiens, UniProt Q12809); experiment: hERG-K^+ channel blocking effect
[1] = male, Crj:CD IGS, rat, in vivo, po, 5 mg/kg
Description: (§1) The Comparative compound was also evaluated by the same procedure.
(§2) The test substance was orally administered to fasted rats (7 week old male Crj:CD IGS rats purchased from Charles River Laboratories Japan, Inc.) at a dose of 5 mg/kg.
(§3) Animals of absorption test group (3 animals per group) were sacrificed by bleeding under etherization at 0.25, 0.5, 1, 2, 4, and 8 hours after the drug administration, and blood, lever, kidney, and lung were collected. The blood was centrifuged (3000 rpm×15 minutes, 4° C.) after coagulation to collect serum. Tissue was homogenized after adding 3 to 5 mL of 0.1 mol/l phosphate buffer (pH 7.0), and the supernatant was collected from the homogenate (3000 rpm×15 minutes, 4° C.).
(§4) Animals of excretion test group (3 animals per group) were placed in a metabolic cage, and the urine of 0 to 4 hours and 4 to 24 hours after the administration was collected in a water-cooled container. Simultaneously with the collection of the urine, the cage was also washed with about 15 mL of 0.1 mol/l phosphate buffer (pH 7.0) to collect the urine attached to the cage. For evaluation of conjugates such as glucuronide, the collected sample was also aliquoted and hydrolyzed with an equal amount of 1 mol/l aqueous solution of sodium hydroxide, and the hydrolysate was neutralized with 0.5 mol/l hydrochloric acid and measured for its concentration. The concentration was measured by LC-MS/MS method.
(§5) Pharmacokinetic parameters of the each drug in rat were calculated by from the time course of the average concentration by using pharmacokinetic analysis software PSAG-CP (AS Medica Inc.) in a manner not dependent on the model animal.

[2] = design: species or system guinea pigs (Slc:Hertley); conditions: guinea pig, in vivo
Description: Guinea pig maximization test (GPMT) which is a widely accepted model for delayed antigenicity was conducted according to the method of Mugnusson et al. (J. invest. Dermatol., 52, 1969) by using a cutaneous sensitization concentration of 1% and a patch sensitization and induction concentration of 10%. At day 1, the animal was sensitized by cutaneously administering the test substance (the quinolone compounds and the control: vehicle, vaseline) (1% solution in physiological saline+FCA emulsion) at the back of the head of the shaved guinea pigs (7 week old male Slc:Hertley). At day 7, lauryl sodium sulfate (SLC) was applied for stimulus (adjuvant treatment), and on the next day, the test substance coated on a wax paper was patched onto the shaved skin to for sealed sensitization, and after 48 hours (at day 10), the waxed paper was removed. The skin reaction was observed upon the removal. On day 22, the test substance (10%) was patched onto the anterior side of the body for induction, and the induction patching was removed after 24 hours. On the next day (at day 24) and the next day (at day 25), the skin reaction was evaluated according to the description of the document as mentioned above. Erythema and edema were scored, and the case with the total score of 2 or higher was evaluated to be positive with the maximum of the score being 7.

P. aeruginosa, 32121 = experiment: antibacterial activity (MIC), standard method of Japanese Society of Chemotherapy; conditions: Pseudomonas aeruginosa
E. faecalis, ATCC 19433 = experiment: as above; conditions: Enterococcus faecalis, ATCC19433, E. faecalis
[3] = pharmacokinetics in rat (concentration in blood and organs, urine excretion) after oral administration; conditions: fasted rat, oral 5 mg/kg;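 also: fasted 7-week-old rats, three per group, tissue sampled up to 8 h post-dose and urine collected over 0–24 h, with conjugates measured after alkaline hydrolysis, concentrations by LC-MS/MS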
Description: as §1, §2, §3, §4, §5

[4] = tested on: S. pneumoniae, J24 (penicillin-intermediate resistant bacteria); experiment: antibacterial activity (MIC), standard method of Japanese Society of Chemotherapy; conditions: Streptococcus pneumoniae
[5] = female, cynomolgus monkey, in vivo, 5 mg/kg
[6] = tested on: S. aureus, 87037 (LVFX-resistant MRSA); experiment: antibacterial activity (MIC), standard method of Japanese Society of Chemotherapy; conditions: Staphylococcus aureus, MRSA, S. aureus, 87037 (LVFX-resistant MRSA)
P. aeruginosa, 32104 = experiment: as above; conditions: Pseudomonas aeruginosa
P. vulgaris, 08601 = experiment: as above; conditions: Proteus vulgaris, 08601, P. vulgaris
S. aureus, 209P = experiment: as above; conditions: Staphylococcus aureus
in vivo = conditions: female, cynomolgus monkey, po, 5 mg/kg
S. epidermidis, 56500 = experiment: antibacterial activity (MIC), standard method of Japanese Society of Chemotherapy; conditions: Staphylococcus epidermidis, 56500, S. epidermidis

Chain of hERG K+ channel (Q12809 whole entry): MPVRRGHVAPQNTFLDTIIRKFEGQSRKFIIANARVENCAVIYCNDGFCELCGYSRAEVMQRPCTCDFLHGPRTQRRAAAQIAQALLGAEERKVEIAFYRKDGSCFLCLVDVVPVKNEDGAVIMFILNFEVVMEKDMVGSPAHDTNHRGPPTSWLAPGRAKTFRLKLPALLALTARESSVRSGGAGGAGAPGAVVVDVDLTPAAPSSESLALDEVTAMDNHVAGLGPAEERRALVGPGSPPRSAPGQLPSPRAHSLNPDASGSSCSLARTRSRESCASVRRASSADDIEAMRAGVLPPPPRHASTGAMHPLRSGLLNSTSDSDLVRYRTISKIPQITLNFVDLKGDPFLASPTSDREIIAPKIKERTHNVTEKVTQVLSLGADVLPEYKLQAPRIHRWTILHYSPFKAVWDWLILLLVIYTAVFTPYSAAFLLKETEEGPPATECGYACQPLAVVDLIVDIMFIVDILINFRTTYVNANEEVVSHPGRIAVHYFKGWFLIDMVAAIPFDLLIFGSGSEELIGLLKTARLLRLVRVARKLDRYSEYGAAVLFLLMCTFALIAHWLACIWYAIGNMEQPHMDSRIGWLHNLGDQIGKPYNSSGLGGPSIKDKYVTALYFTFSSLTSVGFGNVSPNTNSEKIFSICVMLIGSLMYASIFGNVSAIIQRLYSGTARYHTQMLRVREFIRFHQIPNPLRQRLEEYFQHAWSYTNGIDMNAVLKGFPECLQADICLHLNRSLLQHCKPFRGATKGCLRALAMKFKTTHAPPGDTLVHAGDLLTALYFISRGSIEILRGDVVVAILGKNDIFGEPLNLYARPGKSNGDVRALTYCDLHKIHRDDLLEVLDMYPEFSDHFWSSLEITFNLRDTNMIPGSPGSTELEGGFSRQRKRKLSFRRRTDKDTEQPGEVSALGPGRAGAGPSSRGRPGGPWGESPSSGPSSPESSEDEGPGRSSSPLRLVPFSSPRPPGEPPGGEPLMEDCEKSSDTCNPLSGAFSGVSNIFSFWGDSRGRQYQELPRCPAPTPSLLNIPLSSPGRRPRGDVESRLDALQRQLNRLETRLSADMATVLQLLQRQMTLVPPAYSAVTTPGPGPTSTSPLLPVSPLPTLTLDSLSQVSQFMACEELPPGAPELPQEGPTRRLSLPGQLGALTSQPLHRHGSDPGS

COc1c(N2C[C@@H]3CCCN[C@@H]3C2)c(F)cc2c(=O)c(C(=O)O)cn(C3CC3)c12 [MFLX, moxifloxacin, reference compound]
MIC (E. coli NIHJ): 0.012 µg/mL (≈ 0.0299 µM)
inhibition at 30 µM (hERG K+ channel): 33.9 ± 8.3%
inhibition at 100 µM (hERG K+ channel): 44.6 ± 10.2%
inhibition at 300 µM (hERG K+ channel): 69.9 ± 8.3%
Recovery (%) in urine in relation to the amount administered, Recovery (%) including conjugate [1]: 30.8%
Serum Cmax (0.25 h) [1]: 1490 ng/mL
Evaluation in GPMT [2]: Negative
Average score in GPMT ([2]; male, Slc:Hertley): 0
MIC (P. aeruginosa, 32121): 0.2 µg/mL (≈ 0.498 µM)
MIC (E. faecalis, ATCC 19433): 0.2 µg/mL (≈ 0.498 µM)
Tissue Cmax, Lung [3]: 4.69 µg/g
MIC [4]: 0.1 µg/mL (≈ 0.249 µM)
Recovery (%) in urine in relation to the amount administered, Recovery (%) including conjugate [5]: 12.2%
Serum Cmax ([5]; po): 1030 ng/mL
MIC [6]: 1.56 µg/mL (≈ 3.89 µM)
MIC (P. aeruginosa, 32104): 0.39 µg/mL (≈ 0.972 µM)
MIC (P. vulgaris, 08601): 0.025 µg/mL (≈ 0.0623 µM)
MIC (S. aureus, 209P): 0.05 µg/mL (≈ 0.125 µM)
AUC(0-t) (in vivo): 6640 ng·h/mL
MIC (S. epidermidis, 56500): 0.2 µg/mL (≈ 0.498 µM)
